{"source": "patent US20210038545A1", "about": "(priority 2018, published 2021)", "system": "S. pneumoniae", "details": "mice colonized with IAV (H1N1, 7 dpi) microbiota; acetate five days before 1×10^6 CFUs; vs vehicle-treated transplanted animals; FIG. 4A"}
{"compound": "CC(=O)O", "note": "[acetate]", "values": [{"measurement": "resistance to S. pneumoniae challenge", "value": "more resistant"}]}
